From ChEMBL document CHEMBL1697723, “A predictive ligand-based Bayesian model for human drug-induced liver injury” (Drug Metab Dispos, 2010)
Where a name gives a salt, the structure may show the parent alone.

tested on: Hepatotoxicity; experiment: Human drug-induced liver injury (DILI) modelling dataset from Ekins et al; conditions: not given

Structure (SMILES) | Hepatotoxicity
CCOc1nc2cccc(C(=O)O)c2n1Cc1ccc(-c2ccccc2-c2nnn[nH]2)cc1 | DILI negative (test set)
CCCc1nc2c(C)cc(-c3nc4ccccc4n3C)cc2n1Cc1ccc(-c2ccccc2C(=O)O)cc1 | DILI negative (training set)
CCCCC(=O)N(Cc1ccc(-c2ccccc2-c2nnn[nH]2)cc1)[C@H](C(=O)O)C(C)C | DILI negative (test set)
CC(C)(C)NCC(O)c1cc(O)cc(O)c1.O=S(=O)(O)O (stereo unspecified) | DILI positive (test set)
COc1cccc(OC)c1C(=O)N[C@@H]1C(=O)N2[C@@H]1SC(C)(C)[C@@H]2C(=O)[O-].[Na+] | DILI positive (training set)
CN[C@@H]1[C@H](O)[C@H](NC)[C@H]2O[C@@]3(O)C(=O)C[C@@H](C)O[C@H]3O[C@@H]2[C@H]1O.Cl | DILI positive (test set)
CCO.C[C@H]1c2cccc(O)c2C(=O)C2=C(O)[C@]3(O)C(=O)C(C(N)=O)=C(O)[C@@H](N(C)C)[C@@H]3[C@@H](O)[C@@H]21.Cl.O | DILI positive (training set)
CCN(CC)CCNC(=O)c1cc(Cl)c(N)cc1OC.Cl | DILI positive (training set)
CNS(=O)(=O)Cc1ccc2[nH]cc(CCN(C)C)c2c1 | DILI negative (training set)
CN(C)CCN(Cc1cccs1)c1ccccn1 | DILI positive (test set)
CCCCCOC(=O)c1ccccc1C(=O)OCCCCC | DILI positive (test set)
CC1=C(CC(=O)O)c2cc(F)ccc2/C1=C\c1ccc([S+](C)[O-])cc1 (stereo unspecified) | DILI positive (training set)
CCOC(=O)[C@H](CCc1ccccc1)N[C@@H](C)C(=O)N1Cc2ccccc2C[C@H]1C(=O)O | DILI positive (training set)
S=C=Nc1ccc2ccccc2c1 | DILI negative (test set)
CO/N=C(/C(=O)N[C@@H]1C(=O)N2C(C(=O)[O-])=C(CSc3nc(=O)c(O)nn3C)CS[C@H]12)c1csc(N)n1.[Na+] | DILI positive (test set)
O=C1NC(=O)C(O)(O)C(=O)N1 | DILI negative (training set)
Oc1ccccc1Br | DILI positive (test set)
O=C(O)COc1ccc(C(=O)c2cccs2)c(Cl)c1Cl | DILI positive (test set)
O=C1NCN(c2ccccc2)C12CCN(CCCC(c1ccc(F)cc1)c1ccc(F)cc1)CC2 | DILI positive (test set)
C[n+]1ccc(-c2cc[n+](C)cc2)cc1 | DILI positive (test set)
Nc1ccc(Cc2ccc(N)cc2)cc1 | DILI positive (test set)
C=C1CC[C@@]2(O)[C@H]3Cc4ccc(O)c5c4[C@@]2(CCN3CC2CC2)[C@H]1O5 | DILI negative (training set)
ClCCCl [1,2-DICHLOROETHANE] | DILI positive (test set)

Structure (SMILES) | Hepatotoxicity
Clc1ccc(Cl)cc1 [1,4-DICHLOROBENZENE] | DILI positive (test set)
FCCCCCF [1,5-DIFLUOROPENTANE] | DILI positive (test set)
S=C=Nc1cccc2ccccc12 [1-NAPHTHYLISOTHIOCYANATE] | DILI positive (test set)
O=[N+]([O-])c1ccc(O)c([N+](=O)[O-])c1 [2,4-DINITROPHENOL] | DILI positive (test set)
Nc1ccc(O)cc1 [4-AMINOPHENOL] | DILI negative (test set)
Nc1nc(NC2CC2)c2ncn([C@H]3C=C[C@@H](CO)C3)c2n1 [ABACAVIR] | DILI positive (test set)
CC(=O)CC(c1ccc([N+](=O)[O-])cc1)c1c(O)c2ccccc2oc1=O (stereo unspecified) [ACENOCOUMAROL] | DILI positive (test set)
CC(=O)Nc1ccc(O)cc1 [ACETAMINOPHEN] | DILI positive (training set)
CC(=O)Nc1nnc(S(N)(=O)=O)s1 [ACETAZOLAMIDE] | DILI positive (training set)
CC(=O)c1ccc(S(=O)(=O)NC(=O)NC2CCCCC2)cc1 [ACETOHEXAMIDE] | DILI positive (training set)
CC(=O)N[C@@H](CS)C(=O)O [ACETYLCYSTEINE] | DILI negative (test set)
COc1cc(C)c(/C=C/C(C)=C/C=C/C(C)=C/C(=O)O)c(C)c1C [ACITRETIN] | DILI positive (training set)
N[C@H](C(=O)O)[C@@H]1CC(Cl)=NO1 [ACIVICIN] | DILI negative (training set)
CC[C@@]1(O)C[C@H](O[C@H]2C[C@H](N(C)C)[C@H](O[C@H]3C[C@H](O)[C@H](O[C@H]4CCC(=O)[C@H](C)O4)[C@H](C)O3)[C@H](C)O2)c2c(cc3c(c2O)C(=O)c2c(O)cccc2C3=O)[C@H]1C(=O)OC.Cl [ACLARUBICIN HYDROCHLORIDE] | DILI negative (test set)
Nc1ncnc2c1ncn2[C@@H]1O[C@H](CO)[C@@H](O)[C@H]1O [ADENOSINE] | DILI negative (training set)
COc1cc2c(c3oc(=O)c4c(c13)CCC4=O)[C@@H]1C=CO[C@@H]1O2 [AFLATOXIN] | DILI positive (test set)
CCCSc1ccc2nc(NC(=O)OC)[nH]c2c1 [ALBENDAZOLE] | DILI positive (training set)
Oc1ncnc2[nH]ncc12 [ALLOPURINOL] | DILI positive (training set)
C=CCO [ALLYL ALCOHOL] | DILI positive (test set)
C=CCOC=O [ALLYL FORMATE] | DILI positive (test set)
CCCN(CCC)C(=O)Cc1c(-c2ccc(Cl)cc2)nc2ccc(Cl)cn12 [ALPIDEM] | DILI positive (test set)
Cl.NC12CC3CC(CC(C3)C1)C2 [AMANTADINE HYDROCHLORIDE] | DILI negative (training set)
Cl.N=C(N)NC(=O)c1nc(Cl)c(N)nc1N.O.O [AMILORIDE HYDROCHLORIDE] | DILI negative (training set)

Structure (SMILES) | Hepatotoxicity
Cl.O=C(O)CCCCCCNC1c2ccccc2CCc2ccccc21 [AMINEPTINE HYDROCHLORIDE] | DILI positive (test set)
Nc1ccc(C(=O)[O-])cc1.[K+] [AMINOBENZOATE POTASSIUM] | DILI negative (training set)
NCCCCCC(=O)O [AMINOCAPROIC ACID] | DILI negative (test set)
CCC1(c2ccc(N)cc2)CCC(=O)NC1=O (stereo unspecified) [AMINOGLUTETHIMIDE] | DILI negative (training set)
Nc1ccc(C(=O)O)c(O)c1 [AMINOSALICYLIC ACID] | DILI positive (training set)
CN(C)CCC=C1c2ccccc2CCc2ccccc21.Cl [AMITRIPTYLINE HYDROCHLORIDE] | DILI negative (training set)
Cl.N [AMMONIUM CHLORIDE] | DILI negative (training set)
Clc1ccc2c(c1)C(N1CCNCC1)=Nc1ccccc1O2 [AMOXAPINE] | DILI negative (training set)
CC1(C)S[C@@H]2[C@H](NC(=O)[C@H](N)c3ccc(O)cc3)C(=O)N2[C@H]1C(=O)O [AMOXICILLIN] | DILI negative (test set)
C[C@@H]1[C@H](O)[C@@H](C)/C=C/C=C/C=C/C=C/C=C/C=C/C=C/[C@H](O[C@@H]2O[C@H](C)[C@@H](O)[C@H](N)[C@@H]2O)C[C@@H]2O[C@](O)(C[C@@H](O)C[C@@H](O)[C@H](O)CC[C@@H](O)C[C@@H](O)CC(=O)O[C@H]1C)C[C@H](O)[C@H]2C(=O)O [AMPHOTERICIN B] | DILI negative (test set)
CC1(C)S[C@@H]2[C@H](NC(=O)[C@H](N)c3ccccc3)C(=O)N2[C@H]1C(=O)[O-].[Na+] [AMPICILLIN SODIUM] | DILI negative (test set)
COc1cc(NS(C)(=O)=O)ccc1Nc1c2ccccc2nc2ccccc12.Cl [AMSACRINE HYDROCHLORIDE] | DILI positive (training set)
CCOC(=O)C1(c2ccccc2)CCN(CCc2ccc(N)cc2)CC1.Cl [ANILERIDINE HYDROCHLORIDE] | DILI negative (test set)
N=C(N)NCCC[C@H](N)C(=O)O [ARGININE] | DILI negative (training set)
O=[As][As+](=O)[O-] (stereo unspecified) [ARSENIC TRIOXIDE] | DILI positive (test set)
O=C1O[C@H]([C@@H](O)CO)C(O)=C1O [ASCORBIC ACID] | DILI negative (training set)
CC(=O)Oc1ccccc1C(=O)O [ASPIRIN] | DILI negative (training set)
COc1ccc(CCN2CCC(Nc3nc4ccccc4n3Cc3ccc(F)cc3)CC2)cc1 [ASTEMIZOLE] | DILI negative (training set)
CNCC[C@@H](Oc1ccccc1C)c1ccccc1 [ATOMOXETINE] | DILI positive (test set)
C=C1[C@@H]2CCC3[C@@](CC[C@@H]4[C@H](C(=O)O)C[C@@H](O[C@@H]5O[C@H](CO)[C@@H](OS(=O)(=O)[O-])[C@H](OS(=O)(=O)[O-])[C@H]5OC(=O)CC(C)C)C[C@@]34C)(C2)[C@@H]1O.[K+].[K+] (stereo partly specified) [ATRACTYLOSIDE] | DILI positive (training set)
[N-]=[N+]=CC(=O)OC[C@H](N)C(=O)O [AZASERINE] | DILI positive (training set)
CN1CCC(=C2c3ccccc3CCc3cccnc32)CC1.O=C(O)/C=C\C(=O)O.O=C(O)/C=C\C(=O)O [AZATADINE MALEATE] | DILI positive (test set)

same assay, conditions: Liver

Structure (SMILES) | Hepatotoxicity
Cl.NCCNCCNCCN | DILI positive (test set)
CCN(CC)Cc1cc(Nc2ccnc3cc(Cl)ccc23)ccc1O.Cl.Cl.Cl | DILI positive (test set)
N#CC(C#N)=NNc1ccc(OC(F)(F)F)cc1 | DILI positive (training set)
CC(=O)OCC[N+](C)(C)C.[Cl-] [ACETYLCHOLINE CHLORIDE] | DILI negative (training set)
CCCCc1oc2ccccc2c1C(=O)c1cc(I)c(OCCN(CC)CC)c(I)c1 [AMIODARONE] | DILI positive (training set)
CC(C)NCC(O)COc1ccc(CC(N)=O)cc1 (stereo unspecified) [ATENOLOL] | DILI negative (training set)
Nc1ncn([C@@H]2O[C@H](CO)[C@@H](O)[C@H]2O)c(=O)n1 [AZACITIDINE] | DILI positive (test set)
Cn1cnc([N+](=O)[O-])c1Sc1ncnc2nc[nH]c12 [AZATHIOPRINE] | DILI positive (training set)
